From US20230085307A1, “PYRIDAZINONE COMPOUND AND HERBICIDE” (NISSAN CHEMICAL CORPORATION, priority 2019, published 2023)

What was measured:
[1] = test system: oval-leafed pondweed; assay: Test Example 1: herbicidal activity, application before weed generation under submerged conditions (Table 16, symbol C); format: in vivo, oval-leafed pondweed (Monochoria vaginalis); conditions: 320 g/ha applied herbicide
Procedure, shortened: (§1)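 Emulsion formulation, water-diluted to set dose, was put onto the flooded surface (4 cm depth, alluvial soil) the same day weeds were sown and 2.5-leaf rice transplanted. After 3 weeks at 25-30 °C under glass, each species was rated 0 (≤5% kill) to 5 (≥90% kill).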

[2] = test system: velvetleaf; assay: Test Example 5: herbicidal effect by foliage application, plastic box (Table 20, symbol M); format: in vivo, velvetleaf (Abutilon theophrasti); conditions: foliage application, 320 g/ha, evaluated three weeks after application
Procedure, shortened: (§2)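 Foliar spray test: emulsion formulation diluted in water to a set application rate, sprayed onto 14-day-old plants raised in diluvial soil at 25° C to 30° C under glass. Both herbicidal effect and crop effect rated visually three weeks later.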

[3] = test system: redroot pigweed; assay: Test Example 4: herbicidal effect by soil treatment (Table 19, symbol N); format: in vivo, redroot pigweed (Amaranthus retroflexus); conditions: amount of applied herbicide 320 g/ha
Procedure, shortened: (§3)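 Herbicidal effect was rated 3 weeks after treatment, using the scoring criteria of an earlier test. The compound, formulated as an emulsion and diluted in water to a set herbicide amount, had been sprayed uniformly on soil over freshly sown seeds. Growth took place in a greenhouse at 25° C. to 30° C.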

[4] = test system: lambsquarters; assay: Test Example 5: herbicidal effect by foliage application, plastic box (Table 20, symbol O); format: in vivo, lambsquarters (Chenopodium album); conditions: foliage application, 320 g/ha, evaluated three weeks after application
Procedure, shortened: as §2

[5] = test system: southern crabgrass; assay: Test Example 5: herbicidal effect by foliage application, plastic box (Table 20, symbol F); format: in vivo, southern crabgrass (Digitaria ciliaris); conditions: foliage application, 320 g/ha, evaluated three weeks after application
Procedure, shortened: as §2

[6] = test system: Chinese sprangletop; assay: Test Example 3: herbicidal effect by foliage application, Wagner pot (Table 18, symbol D); format: in vivo, chinese sprangletop (Leptochloa chinensis); conditions: amount of applied herbicide 320 g/ha
Procedure, shortened: (§4)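 Plants were sown in alluvial soil held under 0.1–0.5 cm standing water and grown 14 days in a greenhouse at 25–30 °C. An emulsifiable formulation, water-diluted to the set dose, was then sprayed onto the foliage, and effects were scored three weeks later using previously defined criteria.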

[7] = test system: barnyard grass; assay: Test Example 4: herbicidal effect by soil treatment (Table 19, symbol H); format: in vivo, barnyard grass (Echinochloa crus-galli); conditions: amount of applied herbicide 320 g/ha
Procedure, shortened: as §3

[8] = test system: barnyard grass; assay: Test Example 5: herbicidal effect by foliage application, plastic box (Table 20, symbol H); format: in vivo, barnyard grass (Echinochloa crus-galli); conditions: foliage application, 320 g/ha, evaluated three weeks after application
Procedure, shortened: as §2

[9] = test system: southern crabgrass; assay: Test Example 4: herbicidal effect by soil treatment (Table 19, symbol F); format: in vivo, southern crabgrass (Digitaria ciliaris); conditions: amount of applied herbicide 320 g/ha
Procedure, shortened: as §3

[10] = test system: blackgrass; assay: Test Example 4: herbicidal effect by soil treatment (Table 19, symbol J); format: in vivo, blackgrass (Alopecurus myosuroides); conditions: amount of applied herbicide 320 g/ha
Procedure, shortened: as §3

[11] = test system: windgrass; assay: Test Example 4: herbicidal effect by soil treatment (Table 19, symbol L); format: in vivo, windgrass (Apera spica-venti); conditions: amount of applied herbicide 320 g/ha
Procedure, shortened: as §3

[12] = test system: late watergrass; assay: Test Example 1: herbicidal activity, application before weed generation under submerged conditions (Table 16, symbol A); format: in vivo, late watergrass (Echinochloa oryzicola); conditions: 320 g/ha applied herbicide
Procedure, shortened: as §1

[13] = test system: wild oat; assay: Test Example 5: herbicidal effect by foliage application, plastic box (Table 20, symbol I); format: in vivo, wild oat (Avena fatua); conditions: foliage application, 320 g/ha, evaluated three weeks after application
Procedure, shortened: as §2

[14] = test system: Italian ryegrass; assay: Test Example 4: herbicidal effect by soil treatment (Table 19, symbol K); format: in vivo, Italian ryegrass (Lolium multiflorum); conditions: amount of applied herbicide 320 g/ha
Procedure, shortened: as §3

[15] = test system: wild oat; assay: Test Example 4: herbicidal effect by soil treatment (Table 19, symbol I); format: in vivo, wild oat (Avena fatua); conditions: amount of applied herbicide 320 g/ha
Procedure, shortened: as §3

[16] = test system: Italian ryegrass; assay: Test Example 5: herbicidal effect by foliage application, plastic box (Table 20, symbol K); format: in vivo, Italian ryegrass (Lolium multiflorum); conditions: foliage application, 320 g/ha, evaluated three weeks after application
Procedure, shortened: as §2

[17] = test system: chickweed; assay: Test Example 4: herbicidal effect by soil treatment (Table 19, symbol P); format: in vivo, common chickweed (Stellaria media); conditions: amount of applied herbicide 320 g/ha
Procedure, shortened: as §3

[18] = test system: velvetleaf; assay: Test Example 4: herbicidal effect by soil treatment (Table 19, symbol M); format: in vivo, velvetleaf (Abutilon theophrasti); conditions: amount of applied herbicide 320 g/ha
Procedure, shortened: as §3

[19] = test system: redroot pigweed; assay: Test Example 5: herbicidal effect by foliage application, plastic box (Table 20, symbol N); format: in vivo, redroot pigweed (Amaranthus retroflexus); conditions: foliage application, 320 g/ha, evaluated three weeks after application
Procedure, shortened: as §2

[20] = test system: Japanese bulrush; assay: Test Example 1: herbicidal activity, application before weed generation under submerged conditions (Table 16, symbol B); format: in vivo, Japanese bulrush (Schoenoplectus juncoides); conditions: 320 g/ha applied herbicide
Procedure, shortened: as §1

[21] = test system: green foxtail; assay: Test Example 4: herbicidal effect by soil treatment (Table 19, symbol G); format: in vivo, green foxtail (Setaria viridis); conditions: amount of applied herbicide 320 g/ha
Procedure, shortened: as §3

[22] = test system: green foxtail; assay: Test Example 5: herbicidal effect by foliage application, plastic box (Table 20, symbol G); format: in vivo, green foxtail (Setaria viridis); conditions: foliage application, 320 g/ha, evaluated three weeks after application
Procedure, shortened: as §2

[23] = test system: lambsquarters; assay: Test Example 4: herbicidal effect by soil treatment (Table 19, symbol O); format: in vivo, lambsquarters (Chenopodium album); conditions: amount of applied herbicide 320 g/ha
Procedure, shortened: as §3

[24] = test system: barnyard grass; assay: Test Example 3: herbicidal effect by foliage application, Wagner pot (Table 18, symbol H); format: in vivo, barnyard grass (Echinochloa crus-galli); conditions: amount of applied herbicide 320 g/ha
Procedure, shortened: as §4

[25] = test system: chickweed; assay: Test Example 5: herbicidal effect by foliage application, plastic box (Table 20, symbol P); format: in vivo, common chickweed (Stellaria media); conditions: foliage application, 320 g/ha, evaluated three weeks after application
Procedure, shortened: as §2

[26] = test system: persian speedwell; assay: Test Example 5: herbicidal effect by foliage application, plastic box (Table 20, symbol R); format: in vivo, Persian speedwell (Veronica persica); conditions: foliage application, 320 g/ha, evaluated three weeks after application
Procedure, shortened: as §2

[27] = test system: windgrass; assay: Test Example 5: herbicidal effect by foliage application, plastic box (Table 20, symbol L); format: in vivo, windgrass (Apera spica-venti); conditions: foliage application, 320 g/ha, evaluated three weeks after application
Procedure, shortened: as §2

[28] = test system: false cleavers; assay: Test Example 4: herbicidal effect by soil treatment (Table 19, symbol Q); format: in vivo, false cleavers (Galium spurium); conditions: amount of applied herbicide 320 g/ha
Procedure, shortened: as §3

[29] = test system: persian speedwell; assay: Test Example 4: herbicidal effect by soil treatment (Table 19, symbol R); format: in vivo, Persian speedwell (Veronica persica); conditions: amount of applied herbicide 320 g/ha
Procedure, shortened: as §3

[30] = test system: blackgrass; assay: Test Example 5: herbicidal effect by foliage application, plastic box (Table 20, symbol J); format: in vivo, blackgrass (Alopecurus myosuroides); conditions: foliage application, 320 g/ha, evaluated three weeks after application
Procedure, shortened: as §2

SMILES: COc1cc(F)ccc1-c1sc2ccc(NC(C)=O)cc2c1-c1c(O)c(C)nn(C)c1=O [2-175]
- Herbicidal effect on C: oval-leafed pondweed (grade 0-5) [1]: 0 (Herbicidal rate of 5% or less (almost no effect))
- herbicidal effect on M: velvetleaf (criteria 0-5) [2]: 3 (Herbicidal rate of 40% or more and less than 70%)
- N: redroot pigweed, herbicidal effect rating [3]: 4 (Herbicidal rate of 70% or more and less than 90%)
- herbicidal effect on O: lambsquarters (criteria 0-5) [4]: 5 (Herbicidal rate of 90% or more (almost completely withered))
- herbicidal effect on F: southern crabgrass (criteria 0-5) [5]: 3 (Herbicidal rate of 40% or more and less than 70%)
- herbicidal effect on D: Chinese sprangletop [6]: 3 (Herbicidal rate of 40% or more and less than 70%)
- H: barnyard grass, herbicidal effect rating [7]: 0 (Herbicidal rate of 5% or less (almost no effect))
- herbicidal effect on H: barnyard grass (criteria 0-5) [8]: 1 (Herbicidal rate of 5% or more and less than 20%)
- F: southern crabgrass, herbicidal effect rating [9]: 0 (Herbicidal rate of 5% or less (almost no effect))
- J: blackgrass, herbicidal effect rating [10]: 0 (Herbicidal rate of 5% or less (almost no effect))
- L: windgrass, herbicidal effect rating [11]: 0 (Herbicidal rate of 5% or less (almost no effect))
- Herbicidal effect on A: late watergrass (grade 0-5) [12]: 3 (Herbicidal rate of 40% or more and less than 70%)
- herbicidal effect on I: wild oat (criteria 0-5) [13]: 3 (Herbicidal rate of 40% or more and less than 70%)
- K: Italian ryegrass, herbicidal effect rating [14]: 0 (Herbicidal rate of 5% or less (almost no effect))
- I: wild oat, herbicidal effect rating [15]: 0 (Herbicidal rate of 5% or less (almost no effect))
- herbicidal effect on K: Italian ryegrass (criteria 0-5) [16]: 0 (Herbicidal rate of 5% or less (almost no effect))
- P: chickweed, herbicidal effect rating [17]: 0 (Herbicidal rate of 5% or less (almost no effect))
- M: velvetleaf, herbicidal effect rating [18]: 0 (Herbicidal rate of 5% or less (almost no effect))
- herbicidal effect on N: redroot pigweed (criteria 0-5) [19]: 5 (Herbicidal rate of 90% or more (almost completely withered))
- Herbicidal effect on B: Japanese bulrush (grade 0-5) [20]: 0 (Herbicidal rate of 5% or less (almost no effect))
- G: green foxtail, herbicidal effect rating [21]: 0 (Herbicidal rate of 5% or less (almost no effect))
- herbicidal effect on G: green foxtail (criteria 0-5) [22]: 4 (Herbicidal rate of 70% or more and less than 90%)
- O: lambsquarters, herbicidal effect rating [23]: 4 (Herbicidal rate of 70% or more and less than 90%)
- herbicidal effect on H: barnyard grass [24]: 4 (Herbicidal rate of 70% or more and less than 90%)
- herbicidal effect on P: chickweed (criteria 0-5) [25]: 5 (Herbicidal rate of 90% or more (almost completely withered))
- herbicidal effect on R: persian speedwell (criteria 0-5) [26]: 1 (Herbicidal rate of 5% or more and less than 20%)
- herbicidal effect on L: windgrass (criteria 0-5) [27]: 5 (Herbicidal rate of 90% or more (almost completely withered))
- Q: false cleavers, herbicidal effect rating [28]: 0 (Herbicidal rate of 5% or less (almost no effect))
- R: persian speedwell, herbicidal effect rating [29]: 0 (Herbicidal rate of 5% or less (almost no effect))
- herbicidal effect on J: blackgrass (criteria 0-5) [30]: 5 (Herbicidal rate of 90% or more (almost completely withered))
